Results: the OligoGym collection
After the bases stand the sugars from the 5' end (letter, count) and the backbone: PS all phosphorothioate, else s phosphorothioate and o phosphodiester by linkage. Methylation of C is not given here. l = locked nucleic acid (LNA); d = 2'-deoxy (DNA)

Target: SNHG14
Details: ASO
[1] = Mouse Primary Neuronal Cell, 0.005 µM

Sequence	target mRNA inhibition (Human Neuronal Cell, 0.2 µM)	target mRNA inhibition (Human Neuronal Cell, 1 µM)	target mRNA inhibition (Human Neuronal Cell, 7.5 µM)	other results
AAATATTGCCACCATT (sugars l2 d10 l4, PS)	51%	63%		
AGTTCTACTATACTTTC (sugars l4 d11 l2, PS)	50%	57%		
TGTCATCTAACTTCTTA (sugars l4 d11 l2, PS)	45%	38%		
TCTGTATACACCATCCC (sugars l2 d1 l1 d11 l2, PS)			56%	
AATTATTTATACACCATCAT (sugars lddddldddddddlldldll, PS)			60%	
CAGTTTAAATTCACAC (sugars l3 d10 l3, PS)	34%	46%		
ACTCTGCAATACACCAA (sugars l4 d8 l1 d2 l2, PS)			57%	
TATTGATTCAATTCCCT (sugars lddldddddddddldll, PS)			51%	
TTATAGCCATTCTATCT (sugars l4 d7 l1 d3 l2, PS)			44%	
GCAACATTATTAACCACCT (sugars ldldldddddddlddddll, PS)			52%	
AGCTCTAAACCTTCAA (sugars l3 d10 l3, PS)	40%	12%		
TTCTGTATACACCATCC (sugars l1 d13 l3, PS)			59%	
CAACTATTATCTTCTT (sugars l2 d10 l4, PS)	42%	61%		
CCTAAGCTCCATATTTA (sugars l3 d11 l3, PS)	30%	47%		
CTACATCTCATACTTGC (sugars l2 d13 l2, PS)	-11%	-20%		target mRNA inhibition (Human Neuronal Cell, 5 µM): 8%; target mRNA inhibition [1]: 90.4%
ATCATTCTCAACAATTA (sugars l4 d7 l6, PS)			17%	
TTCTGTATACACCATCCC (sugars l1 d12 l1 d2 l2, PS)			53%	
GCTTCATATTTCTCCA (sugars l2 d12 l2, PS)	57%			
ACTGTTTATACCCTTTC (sugars lddldddddddldddll, PS)			53%	
TTTTTATACCTTTCTTTAAC (sugars l2 d12 l3 d1 l2, PS)			62%	
AGATCATTCTCAACAATTA (sugars ldddlddddddddlldlll, PS)			63%	
ATTGATTCAATTCCCTT (sugars lddlddddddddldlll, PS)			67%	
CCTCTGCTTATAACTT (sugars l3 d10 l3, PS)	47%	68%		

Sequence	target mRNA inhibition (Human Neuronal Cell, 0.2 µM)	target mRNA inhibition (Human Neuronal Cell, 1 µM)	target mRNA inhibition (Human Neuronal Cell, 7.5 µM)	other results
ACACATCTTGTATACA (sugars l4 d10 l2, PS)	49%	56%		
TTCTGTATACACCATCC (sugars l1 d1 l1 d11 l3, PS)			58%	
TTCTACTATACTTTCCTCT (sugars ldddddddddddlddldll, PS)			54%	
AAAATCTCAACTACCATTT (sugars l6 d9 l4, PS)			23%	
TGTTTATACCCTTTCCAA (sugars lddddlddddddldldll, PS)			47%	
ATCATTCTCAACAATTA (sugars l5 d7 l1 d1 l3, PS)			54%	
AAAATTATTTATACACCATC (sugars l1 d2 l2 d9 l6, PS)			56%	
TACTATACTTTCCTCT (sugars l2 d10 l4, PS)	59%	60%		
CAGCTTTTAACCAGAGT (sugars l2 d12 l3, PS)			79%	
CTCATACTTGCTTTAAT (sugars l2 d13 l2, PS)	-18%	13%		target mRNA inhibition (Human Neuronal Cell, 5 µM): 17%; target mRNA inhibition [1]: 84.1%
CTCAAAGATCATTCTCA (sugars ldlldddddddlddlll, PS)			69%	
TGTTTCCATCTACTATTA (sugars l1 d4 l1 d10 l2, PS)			60%	
AGCAACATTATTAACCACC (sugars lddldddddddddlldlll, PS)			50%	
CAAAGATCATTCTCAAC (sugars l1 d2 l2 d6 l6, PS)			34%	
TACCAATAGTTACCTT (sugars l2 d10 l4, PS)	30%	49%		
TTCTGTATACACCATCC (sugars l2 d11 l1 d1 l2, PS)			56%	
GCACATTCTTTCTATACC (sugars l1 d12 l1 d2 l2, PS)			47%	
TTTATCAATATCTTCTCA (sugars lddlllddddddlddlll, PS)			60%	
AAATCTCAACTACCATTTTT (sugars llldldddddddddlldlll, PS)			-2%	
AATTATTTATACACCATCAT (sugars lldldlddddddddllldll, PS)			59%	
TTCTGTATACACCATCC (sugars l1 d3 l1 d9 l3, PS)			64%	
ATCTTTCCATTTATTTCCAT (sugars ldddldldddddddldddll, PS)			30%	
AAATCTCAACTACCATTTTT (sugars ldllldddddddddddldll, PS)			45%	

Sequence	target mRNA inhibition (Human Neuronal Cell, 0.2 µM)	target mRNA inhibition (Human Neuronal Cell, 1 µM)	target mRNA inhibition (Human Neuronal Cell, 7.5 µM)	other results
AGCATCATATAAACCT (sugars l3 d10 l3, PS)	34%	26%		
CTTAGACTTCACCTTTC (sugars l2 d11 l4, PS)	49%	41%		
GCACATTCTTTCTATAC (sugars l2 d1 l1 d11 l2, PS)			61%	
AAAATCTCAACTACCATTTT (sugars lddllldddddddldldlll, PS)			36%	
AGATCATTCTCAACAATT (sugars l3 d1 l1 d9 l4, PS)			43%	
GAATTCTTTATTCCTCC (sugars l2 d11 l4, PS)	45%	41%		
TTTCCATTTATTTCCATTTA (sugars lddddldddddddlddldll, PS)			58%	
TCATTTCATATTACTAAC (sugars l4 d12 l2, PS)	13%	32%		
TTCCCTTTGATAACAT (sugars l4 d10 l2, PS)	9%	34%		
ACCTACATCTCATACT (sugars l4 d10 l2, PS)	14%	-14%		target mRNA inhibition (Human Neuronal Cell, 5 µM): 33%; target mRNA inhibition [1]: 93.8%
ACAACTTCTATCATAC (sugars l3 d10 l3, PS)	44%	55%		
GAACAACTTCTATCAT (sugars l2 d10 l4, PS)	16%	28%		
ATTTTTTTCTTACTATCTTC (sugars ldlldlldddddddddddll, PS)			69%	
TCTTTCCATTTATTTCCAT (sugars lddldldddddddldldll, PS)			37%	
TTATACCTTTCTTTAACCCT (sugars ldddldddddddddddldll, PS)			57%	
CTTTCCATTTATTTCCATT (sugars lddddldddddddddldll, PS)			59%	
GTTTATACCCTTTCCAAT (sugars l2 d11 l1 d2 l2, PS)			67%	
TTCTGTATACACCATCC (sugars l1 d10 l1 d3 l2, PS)			51%	
GTTTCCATCTACTATTAAT (sugars ldddlddddddddlddlll, PS)			58%	
ACCACCTTAAGTAACA (sugars l4 d10 l2, PS)	27%	33%		
TCCTATATTCTCTTAAA (sugars l4 d11 l2, PS)	47%	66%		
CCATTTATTTCCATTTAT (sugars l3 d12 l3, PS)	38%	59%		
TCTCTACAACAGTCCCA (sugars l2 d13 l2, PS)	44%	55%		

Sequence	target mRNA inhibition (Human Neuronal Cell, 0.2 µM)	target mRNA inhibition (Human Neuronal Cell, 1 µM)	target mRNA inhibition (Human Neuronal Cell, 7.5 µM)	other results
TATACCTTTCTTTAACCCTT (sugars llddldldddddddddddll, PS)			60%	
ATCATTCTCAACAATTAA (sugars l5 d8 l5, PS)			48%	
CAAACCTACGTCTCTC (sugars l2 d10 l4, PS)	31%	26%		
TTCCTCTGCTTATAACT (sugars l3 d12 l2, PS)	50%	61%		
TAAAATTATTTATACACCAT (sugars l2 d1 l2 d11 l4, PS)			49%	
TACCTACATCTCATACTT (sugars l2 d14 l2, PS)	-10%	11%		target mRNA inhibition (Human Neuronal Cell, 5 µM): 6%
ACATCTCATACTTGCT (sugars l4 d10 l2, PS)				target mRNA inhibition [1]: 94.8%
TTTACACTTAATTATACTTC (sugars ldddlldddddddllddlll, PS)			60%	
AAACTGTACACCTACT (sugars l2 d10 l4, PS)	31%	44%		
TTACCTACATCTCATAC (sugars l3 d11 l3, PS)	0%	5%		target mRNA inhibition (Human Neuronal Cell, 5 µM): 21%; target mRNA inhibition [1]: 91.3%
TTTTTTTCTTACTATCTTCA (sugars ldlddddddddddlddddll, PS)			46%	
TTCTACTATACTTTCCTCT (sugars ldddldddddddldlddll, PS)			58%	
AGCAACATTATTAACCACC (sugars ldddddddddddldlddll, PS)			26%	
TGAAAATCTCAACTACCAT (sugars l4 d12 l3, PS)			49%	
TTTTTTCTTACTATCTTCAA (sugars ldllldldddddddddldll, PS)			58%	
TACTCTGCAATACACC (sugars l1 d3 l1 d9 l2, PS)			52%	
GTTTATACCCTTTCCAAT (sugars l1 d12 l2 d1 l2, PS)			54%	
CTATTTAATTTACACTT (sugars l3 d11 l3, PS)	15%	13%		
CATTTACAAGCACATA (sugars l2 d10 l4, PS)	43%	37%		
AGCAACATTATTAACCAC (sugars l5 d7 l1 d3 l2, PS)			47%	
